Assay results from patent publication US6703421B1, “Methods of using phenylmethylbenzoquinone and hydroquinone compounds for treatment of myocarditis, dilated cardiomyopathy and heart failure” (Daiichi Suntory Pharma Co., Ltd., priority 1999, dated 2004).
Where two headings read alike, the source gives them in different places.

Key:
NF-κB = NF-κB luciferase reporter assay in A549/NF-κBLuc cells; type: cell-based, human; details: for IC50: Homo sapiens, A549/NF-κBLuc, luciferase activity
Experimental: Using lipofectamine (Lifetech Oriental K. K., Tokyo) according to the conventional method, human lung cancer cell line A549 cells (ATCC catalog no. CCL185), which are known to express hiNOS by cytokine stimulation, were co-transfected with pNFκB-Luc, which are plasmid controlled by a NF-κB binding consensus sequence, and pSV2neo (Clontech, U.S.A.), and then A549/NF-κBLuc, the cell that has stably introduced pNFκB-Luc, was selected by adding G418 sulfate (1 mg/ml, Lifetech Oriental K. K.) to the culture medium.
The luciferase activity was measured using the Luciferase Assay System (Promega, U.S.A.).

[1] = test system: EMC virus-inoculated DBA/2 mice (viral myocarditis); test: Survival rate in murine viral myocarditis model; type: in vivo, mouse
Experimental: Viral myocarditis mice were prepared using the procedure described below in accordance with a known method (Shioi T. et al. (1997) J. Mol. Cell. Cardiol., 29, 2327-2334). Variant M (acquired from the American Type Culture Collection) was used for the EMC virus for inoculation and prepared to 100 pfu/ml in Eagle's MEM medium (Nissui Pharmaceutical). Four-week-old DBA/2 male mice were divided into two groups, and intraperitoneally inoculated with EMC virus at 10 pfu/animal. Test compound was then administered intraperitoneally and daily for 14 days under the following conditions to each group starting 3 hours after inoculation.
The test compound was used after dissolving in 0.5% aqueous gum arabic solution (3 mg/ml). In the present example, the compound of Production Example 4 was used in the test as the NF-κB inhibitor.
Test group (n=10): Administration of NF-κB inhibitor (Production Example 4) at 30 mg/kg body weight Control group (n=10): 0.5% aqueous gum arabic solution
The experiment was conducted in the following three groups using the same method as Example 2 and the compound of Production Example 7 for the NF-κB inhibitor. The test compound was used after dissolving in 10% aqueous dimethylsulfoxide solution (DMSO) (test group 1: 0.3 mg/ml, test group 2: 3 mg/ml). The survival rates were tested for the presence of a significant difference according to the Kaplan-Meier method, and statistical significance was defined as p<0.05.
Test group 1 (n=21): Administration of NF-κB inhibitor (Production Example 7) at 3 mg/kg body weight
Test group 2 (n=21): Administration of NF-κB inhibitor (Production Example 7) at 30 mg/kg body weight
Four-week-old DBA/2 male mice were inoculated with EMC virus using the same method as Example 2, and the test compound was administered orally and daily for 14 days under the following conditions to each group starting 2 hours after inoculation.
The test compound was used after dissolving in 10% aqueous sulfobutylcyclodextrin solution (3 mg/ml). In the present example, the compound of Production Example 44 was used in the test as the NF-κB inhibitor.
Test group (n=20): Administration of NF-κB inhibitor (Production Example 44) at 30 mg/kg body weight

[2] = IL-1β (1 ng/ml) for 4 hours, read-out: IC50 (μM) IL-1 stimulation
[3] = TNF-α (500 ng/ml) for 4 hours, read-out: IC50 (μM) TNF stimulation

Row | SMILES | IC50 (NF-κB; [2]) [µM] | further results
1 | COC1=C(OC)C(=O)C(Cc2ccc(CCC(=O)N3CCSCC3)cc2)=C(C)C1=O [Prod. Ex. 4, N-[3-[4-(5,6-Dimethoxy-3-methyl-1,4-benzoquinon-2-ylmethyl)phenyl]propionyl]thimorpholine] | 10 | luciferase activity regulated by activation of NF-κB (NF-κB; A549/NF-κBLuc stimulated with IL-1β (1 ng/ml) or TNF-α (500 ng/ml) for 4 hours, dose-dependent, FIG. 1): suppresses luciferase activity; IC50 (NF-κB; [3]): 10 µM; survival rate ([1]; 30 mg/kg intraperitoneally daily for 14 days, 0.5% gum arabic, FIG. 2): improves the survival rate
2 | COC1=C(OC)C(=O)C(Cc2cccc(C(=O)N3CCOCC3)c2)=C(C)C1=O [Prod. Ex. 44, N-[3-(5,6-Dimothoxy-3-methyl-1,4-benzoquinon-2-ylmethyl)benzoyl]morpholine] | 39 | survival rate ([1]; 30 mg/kg orally daily for 14 days, 10% sulfobutylcyclodextrin, FIG. 4): improves survival rate
3 | COC1=C(OC)C(=O)C(Cc2ccccc2CCC(=O)NC(C)C)=C(C)C1=O [Prod. Ex. 73, N-[3-[2-(5,6-Dimethoxy-3-methyl-1,4-benzoquinon-2-ylmethyl)phenyl]propionyl]isopropylamine] | 34 | –
4 | COC[C@H]1CCCN1C(=O)CCc1ccc(CC2=C(C)C(=O)C(OC)=C(OC)C2=O)cc1 [Prod. Ex. 76] | 14 | –
5 | COC1=C(OC)C(=O)C(Cc2ccc(CCC(=O)N3CCC(C(N)=O)CC3)cc2)=C(C)C1=O [Prod. Ex. 79] | 13 | –
6 | COC1=C(OC)C(=O)C(Cc2ccc(CCC(=O)N3CCC(C)CC3)cc2)=C(C)C1=O [Prod. Ex. 81] | 5 | –
7 | COC1=C(OC)C(=O)C(Cc2ccc(CCC(=O)N3CCCCC3C)cc2)=C(C)C1=O (stereo not shown) [Prod. Ex. 83] | 1 | –
8 | COC1=C(OC)C(=O)C(Cc2ccc(CCC(=O)N3CCCC(C)C3)cc2)=C(C)C1=O (stereo not shown) [Prod. Ex. 85] | 5 | –
9 | COC1=C(OC)C(=O)C(Cc2ccc(CCC(=O)Nc3ccc(OC)cc3)cc2)=C(C)C1=O [Prod. Ex. 94] | 1 | –
10 | COC1=C(OC)C(=O)C(Cc2ccc(CCC(=O)Nc3ccccc3O)cc2)=C(C)C1=O [Prod. Ex. 96] | 17 | –
11 | COC1=C(OC)C(=O)C(Cc2ccc(CCC(=O)Nc3ccc(OC)c(OC)c3)cc2)=C(C)C1=O [Prod. Ex. 103] | 10 | –
12 | COC1=C(OC)C(=O)C(Cc2ccc(CCC(=O)NC(C)CO)cc2)=C(C)C1=O (stereo not shown) [Prod. Ex. 104] | 12 | –
13 | CCOC(=O)C1CCCCN1C(=O)CCc1ccc(CC2=C(C)C(=O)C(OC)=C(OC)C2=O)cc1 (stereo not shown) [Prod. Ex. 105] | 16 | –
14 | COC1=C(OC)C(=O)C(Cc2ccc(CCC(=O)N3CCC[C@H]3C(N)=O)cc2)=C(C)C1=O [Prod. Ex. 106] | 7 | –
15 | COC1=C(OC)C(=O)C(Cc2ccc(CCC(=O)Nc3ccc(CC#N)cc3)cc2)=C(C)C1=O [Prod. Ex. 111] | 14 | –
16 | CCCCCc1ccc(NC(=O)CCc2ccc(CC3=C(C)C(=O)C(OC)=C(OC)C3=O)cc2)cc1 [Prod. Ex. 113] | 16 | –
17 | COC1=C(OC)C(=O)C(Cc2ccc(CCC(=O)N[C@@H](C)c3ccccc3)cc2)=C(C)C1=O [Prod. Ex. 120] | 2 | –
18 | COC1=C(OC)C(=O)C(Cc2ccc(CCC(=O)N[C@H](C)c3ccccc3)cc2)=C(C)C1=O [Prod. Ex. 121] | 7 | –

Row | SMILES | IC50 (NF-κB; [2]) [µM] | further results
19 | COC1=C(OC)C(=O)C(Cc2ccc(CCC(=O)NC(C)CC(C)C)cc2)=C(C)C1=O (stereo not shown) [Prod. Ex. 128] | 19 | –
20 | COC1=C(OC)C(=O)C(Cc2ccc(CCC(=O)NC3CCCCCC3)cc2)=C(C)C1=O [Prod. Ex. 136] | 18 | –
21 | COC1=C(OC)C(=O)C(Cc2ccc(CCC(=O)N3CC(C)CC(C)C3)cc2)=C(C)C1=O (stereo not shown) [Prod. Ex. 137] | 7 | –
22 | CCOC(=O)N1CCN(C(=O)CCc2ccc(CC3=C(C)C(=O)C(OC)=C(OC)C3=O)cc2)CC1 [Prod. Ex. 147] | 47 | –
23 | COC1=C(OC)C(=O)C(Cc2ccc(CCC(=O)N3CCN(c4ccccc4)CC3)cc2)=C(C)C1=O [Prod. Ex. 148] | 25 | –
24 | COC1=C(OC)C(=O)C(Cc2ccc(CCC(=O)N3CCC(O)(c4ccccc4)CC3)cc2)=C(C)C1=O [Prod. Ex. 151] | 20 | –
25 | COC1=C(OC)C(=O)C(Cc2ccc(CCC(=O)N3CCC(O)(c4ccc(Cl)cc4)CC3)cc2)=C(C)C1=O [Prod. Ex. 154] | 28 | –
26 | COC1=C(OC)C(=O)C(Cc2ccc(CCC(=O)N3CCN(c4ccccc4OC)CC3)cc2)=C(C)C1=O [Prod. Ex. 163] | 19 | –
27 | COC1=C(OC)C(=O)C(Cc2ccc(CCC(=O)N3CCc4cc(OC)c(OC)cc4C3)cc2)=C(C)C1=O [Prod. Ex. 167] | 15 | –
28 | COC1=C(OC)C(=O)C(Cc2ccc(CCC(=O)N3CCC(C(C)=O)(c4ccccc4)CC3)cc2)=C(C)C1=O [Prod. Ex. 168] | 9 | –
29 | COC1=C(OC)C(=O)C(Cc2ccc(CCC(=O)N3CCc4ccccc4C3)cc2)=C(C)C1=O [Prod. Ex. 169] | 43 | –
30 | COC1=C(OC)C(=O)C(Cc2ccc(CCC(=O)NCCC(C)C)cc2)=C(C)C1=O [Prod. Ex. 173] | 36 | –
31 | COC1=C(OC)C(=O)C(Cc2ccc(CCC(=O)NC3CCCCC3)cc2)=C(C)C1=O [Prod. Ex. 175] | 19 | –
32 | COC1=C(OC)C(=O)C(Cc2ccc(CCC(=O)Nc3ccc(O)cc3)cc2)=C(C)C1=O [Prod. Ex. 189] | 28 | –
33 | Cc1csc2ncnc(NC3Cc4ccccc4C3)c12 [Prod. Ex. 190, 4-(2-Indanylamino)-5-methylthieno[2,3-d]pyrimidine] | 0.71 | IC50 (NF-κB; [3]): 1.1 µM
34 | CC(C)c1csc2ncnc(NC3Cc4ccccc4C3)c12 [Prod. Ex. 211, 4-(2-Indanylamino)-5-isopropylthieno[2,3-d]pyrimidine] | 0.064 | IC50 (NF-κB; [3]): 0.13 µM
35 | Cc1csc2ncnc(NC3Cc4ccc(Oc5ccccc5)cc4C3)c12 (stereo not shown) [Prod. Ex. 214, 4-(5-Phenoxyindan-2-yl)amino-5-methylthieno[2,3-d]pyrimidine] | 0.15 | –
36 | Cc1csc2ncnc(NC3Cc4ccc(C(=O)NCc5ccccc5)cc4C3)c12 (stereo not shown) [Prod. Ex. 220, N-Benzyl-2-(5-methylthieno[2,3-d]pyrimidine-4-yl)amino-5-indan Carboxamide] | 0.072 | IC50 (NF-κB; [3]): 0.12 µM
